Results reported in patent US20150141274A1, “Methods and Compositions for Activity Dependent Transcriptome Profiling” (The Rockefeller University, priority 2012, published 2015).
No end group written: not given here.

Legend:
pS6 and c-fos = format: in vivo, mouse; conditions: intraperitoneal: cocaine 30 mg/kg 60 min, kainate 12.5 mg/kg 120 min, haloperidol 2 mg/kg 30 min, olanzapine 20 mg/kg 120 min, clozapine 10 mg/kg 45 min; ghrelin
Experimental: (§1) Wild-type male C57B6/J mice from Jackson laboratories were maintained on a 8 pm:8 am light-dark schedule and were 9-13 weeks old at the time of sacrifice. All dissections were performed between noon and 2 pm except as noted. For osmotic stimulation experiments, animals were given an intraperitoneal injection of 2M NaCl (350 μL), water was removed from the cage, and mice were sacrificed 120-140 min later. For fasting experiments, animals were transferred to a new cage without food at 5 pm and then sacrificed at 8 am the following morning. Control mice were fed ad libitum and sacrificed at the same time. For ghrelin experiments, animals were given an intraperitoneal injection of ghrelin (66 μg, Tocris), food was removed from the cage, and animals were dissected 70 min later. For scheduled feeding, animals were allowed access to food between noon and 3 pm each day, and then sacrificed between 1:45 and 2 pm after a minimum of 10 days on this schedule.

K-opioid receptor (KOR) = molecular target: T1, K-opioid receptor (KOR) (Mus musculus, UniProt P33534); assay: Food intake and body weight after treatment with KOR antagonists during scheduled or ad libitum feeding; format: in vivo
T1 construct: An intraperitoneal injection of either a selective KOR antagonist (JDTic) or vehicle was administered to mice; from tissue; host or cells: whole animal (wild-type male C57B6/J mice), i.p. or intracerebroventricular dosing
Experimental: as §1
JDTic was either delivered by intraperitoneal injection (10 mg/kg) or was reconstituted in PBS to a concentration of 1 mg/mL and 5 ul was delivered via Hamilton syringe into the lateral ventricle using coordinates: L/M 1.0 mm from Bregma, A/P −0.4 mm from Bregma and 2.5 mm beneath the cortex. Norbinaltorphimine was delivered at the same dose and coordinates as described above.

hypothalamus [1] = assay: Phosphorylated ribosome profiling (Taqman array) of hypothalamus after salt challenge; format: in vivo, mouse; conditions: 2M NaCl 350 μL intraperitoneal, 120-140 min; 3P peptide
Experimental: (§2) Mice were sacrificed by cervical dislocation. […] Homogenates were transferred to a microcentrifuge tube and clarified at 2000×g for 10 min at 4° C. […] This solution was mixed and then clarified at 17000×g for 10 min at 4° C. The resulting high-speed supernatant was transferred to a new tube, and 20 μL of a 0.05 mM stock solution of 3P peptide was added. A 20 μL aliquot of this solution was removed, transferred to a new tube containing 350 μL buffer RLT (Qiagen), and stored at −80° C. for purification as input RNA. The remainder was used for immunoprecipitation.
(§3) Immunoprecipitations were allowed to proceed 10 min at 4° C. […] During the third wash the beads were transferred to a new tube and allowed to incubate at RT for 10 min. […] RNA assessed using an Agilent 2100 bioanalyzer.
as §1, with “For fasting experiments, animals were transferred to a new cage without food at 5 pm and then sacrificed at 8 am the following morning.” left out
(§4) Taqman probes were designed and ordered for quantification of each of the 225 genes described in Table 4. Probes were distributed to 96-well plates in duplicate, cDNA was prepared using the Quantitect RT kit (Qiagen), and reactions were run using the Taqman Gene Expression Master Mix (ABI) on an Applied Biosystems 7900HT system. For each experiment (stimulus or control), the abundance of each gene in the input RNA and in the pS6 immunoprecipitated RNA was measured in duplicate. The mean RNA abundance was determined, normalized to an rpL27 probe that was present in every plate, and the ratio (IP/Input) was calculated. The experiment was repeated multiple times for each stimulus or control, these values were averaged, and the differential enrichment was calculated (ratio of (IP/Input) stimulus over control). Note that the differential enrichment was calculated because the neuronal markers that become enriched or depleted specifically in response to the stimulus was of interest. Normalization to the control group accounts for the fact that each neural marker has a somewhat different enrichment at baseline, reflecting the fact that each cell-population has somewhat different level of basal pS6. Follow-up analysis focused in every case on the most highly enriched genes in the experiment, which were validated directly by histology.

hypothalamus [2] = conditions: 2 M NaCl 15 μL/g intraperitoneal, 2 hours; pS6 240/244 antibody without 3P peptide
Experimental: Magnetic beads were loaded by incubating 150 μL of Protein A Dynabeads (Invitrogen) with 4 μg of pS6 antibody in Buffer A (10 mM HEPES [pH 7.4], 150 mM KCl, 5 mM MgCl2, 1% NP40, 0.05% IgG-free BSA). Loading was allowed to proceed at 4° C. for a minimum of 1 day. Beads were washed three times with Buffer A immediately before use.
Mice were sacrificed by cervical dislocation. The hypothalamus was rapidly dissected in Buffer B on ice (1×HBSS, 4 mM NaHCO3, 2.5 mM HEPES [pH 7.4], 35 mM Glucose, 100 μg/mL cycloheximide). […] Samples were homogenized three times at 250 rpm and nine times at 750 rpm on a variable-speed homogenizer (Glas-Col) at 4° C. Homogenates were transferred to a microcentrifuge tube and clarified for 10 minutes at 4000 rpm at 4° C. The supernatant was then removed and transferred to a new tube on ice. […]
Immunoprecipitations were allowed to proceed for 30-60 min at 4° C. […] RNA quality was quantified using a NanoDrop spectrophotometer and the quality assessed using an Agilent 2100 bioanalyzer. […] For Taqman analysis, cDNA was prepared using the Sensiscript RT kit (Qiagen) and analyzed using an Applied Biosystems 7900HT system. […]
The ratio of the signal intensities for each gene in the IP (immunoprecipitation) and input was calculated for each experiment, these values were averaged across replicates, and all genes were sorted according to their fold-enrichment.

pS6 = assay: Hypothalamic immunostaining for pS6; format: in vivo, mouse
Experimental: as §1, with “For fasting experiments, animals were transferred to a new cage without food at 5 pm and then sacrificed at 8 am the following morning.” left out
Mice were sacrified at the indicated times by isoflurane anesthesia followed by transcardial perfusion with PBS and then 10% formalin. Brains were dissected, incubated in 10% formalin overnight at 4° C., and 40 μm sections were prepared on a vibratome. Free floating sections were blocked for 1 h at room temperature in buffer E (PBS, 0.1% Triton, 2% goat serum, 3% BSA), and then stained overnight at 4° C. with primary antibodies at the indicated concentrations. For pS6 244 staining, the pS6 240/244 polyclonal antibody (Cell Signaling, #2215) was combined with the 3P peptide (250 nM final concentration). […]
Images were acquired using an LSM510 laser scanning confocal microscope. pS6 was quantified in specific neuronal populations as follows. […] The surfaces corresponding to each labelled cell in the field (e.g. each POMC cell) were reconstructed using Imaris software (Bitplane), and the mean intensity in the pS6 channel within the volume bounded by the surface of each labelled cell was recorded. […] In cases where the absolute number of pS6 positive cells within an anatomic region was desired (e.g. Pdyn neurons in the DMH), the number of pS6 positive and negative cells was counted manually.

hypothalamus [3] = assay: Phosphorylated ribosome profiling (Taqman array) of hypothalamus after ghrelin injection; format: in vivo, mouse; conditions: ghrelin 66 μg intraperitoneal, 70 min
Experimental: as §2, §3
Wild-type male C57B6/J mice from Jackson laboratories were maintained on a 8 pm:8 am light-dark schedule and were 9-13 weeks old at the time of sacrifice. All dissections were performed between noon and 2 pm except as noted. […]
as §4, with “Normalization to the control group accounts for the fact that each neural marker has a somewhat different enrichment at baseline, reflecting the fact that each cell-population has somewhat different level of basal pS6. Follow-up analysis focused in every case on the most highly enriched genes in the experiment, which were validated directly by histology.” left out

[4] = molecular target: phosphorylated ribosomal protein S6 (mouse), in ribosomes of cell lysates (Mus musculus) (UniProt P62754); assay: immunoprecipitation of ribosomes from MEF lysates, recovered RNA quantified
[5] = molecular target: phosphorylated ribosomal protein S6 (mouse), in ribosomes of cell lysates (Mus musculus) (UniProt P62754); assay: immunoprecipitation of ribosomes from MEF lysates, recovered RNA quantified by Bioanalyzer
[6] = ad libitum fed animals, intraperitoneal injection
[7] = scheduled feeding, intraperitoneal injection 10 mg/kg, single dose

T1 sequence (P33534 whole entry): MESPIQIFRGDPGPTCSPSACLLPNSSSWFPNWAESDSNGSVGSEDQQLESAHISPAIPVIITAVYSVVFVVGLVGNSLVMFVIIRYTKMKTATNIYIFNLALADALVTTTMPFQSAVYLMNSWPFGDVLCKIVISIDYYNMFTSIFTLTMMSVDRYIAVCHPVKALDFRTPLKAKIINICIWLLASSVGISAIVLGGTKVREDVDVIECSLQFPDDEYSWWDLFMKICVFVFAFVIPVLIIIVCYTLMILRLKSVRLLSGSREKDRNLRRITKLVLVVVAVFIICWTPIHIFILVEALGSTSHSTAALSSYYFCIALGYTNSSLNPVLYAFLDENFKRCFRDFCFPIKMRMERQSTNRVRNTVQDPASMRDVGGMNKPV

O=C(CCCN1CCC(O)(c2ccc(Cl)cc2)CC1)c1ccc(F)cc1 [haloperidol]
co-localization of pS6 and c-fos in brain regions (pS6 and c-fos): induce co-localization of pS6 and c-fos

C=C(C)[C@H]1CN[C@H](C(=O)O)[C@H]1CC(=O)O [kainate]
co-localization of pS6 and c-fos in brain regions (pS6 and c-fos): induce co-localization of pS6 and c-fos

Oc1ccc2c3c1O[C@H]1c4[nH]c5c(c4C[C@@]4(O)[C@@H](C2)N(CC2CC2)CC[C@]314)C[C@@]1(O)[C@H]2Cc3ccc(O)c4c3[C@@]1(CCN2CC1CC1)[C@H]5O4 [norbinaltorphimine]
increase in food intake (K-opioid receptor (KOR); scheduled feeding, intracerebroventricular injection): more than 50%

[Cl-].[Na+] [salt, NaCl]
enrichment of Cxcl1 in pS6 immunoprecipitates, salt challenged relative to controls (hypothalamus [1]): 13 fold | enrichment of Fezf2 in pS6 immunoprecipitates, salt challenged relative to controls (hypothalamus [1]): 5.5 fold | enrichment of FosB in pS6 immunoprecipitates, salt challenged relative to controls (hypothalamus [1]): 38 fold | enrichment of Nhlh2 in pS6 immunoprecipitates, salt challenged relative to controls (hypothalamus [1]): 7.3 fold | enrichment of Sim1 in pS6 immunoprecipitates, salt challenged relative to controls (hypothalamus [1]): 4.0 fold | enrichment of corticotropin releasing hormone (Crh) in pS6 immunoprecipitates, salt challenged relative to controls (hypothalamus [1]): 10 fold | enrichment of galanin (Gal) in pS6 immunoprecipitates, salt challenged relative to controls (hypothalamus [1]): 4.6 fold | enrichment of oxytocin (Oxt) in pS6 immunoprecipitates, salt challenged relative to controls (hypothalamus [1]): 14 fold | enrichment of prodynorphin (Pdyn) in pS6 immunoprecipitates, salt challenged relative to controls (hypothalamus [1]): 3.4 fold | enrichment of relaxin-1 (Rln1) in pS6 immunoprecipitates, salt challenged relative to controls (hypothalamus [1]): 6.1 fold | enrichment of somatostatin (Sst) in pS6 immunoprecipitates, salt challenged relative to controls (hypothalamus [1]): 3.1 fold | enrichment of urocortin-3 (Ucn3) in pS6 immunoprecipitates, salt challenged relative to controls (hypothalamus [1]): 5.3 fold | enrichment of vasopressin (Avp) in pS6 immunoprecipitates, salt challenged relative to controls (hypothalamus [1]): 49 fold | enrichment of Avp in pS6 IPs from salt challenged animals relative to controls, by Taqman (hypothalamus [2]): 7.9 fold | pS6 staining in PVN, SON and median eminence of the hypothalamus (pS6; salt challenge, 2M NaCl versus vehicle (PBS), pS6 244 staining): induced an increase in pS6

JDTic
body weight (K-opioid receptor (KOR); [6]): no impact | food intake (K-opioid receptor (KOR); [6]): no impact | body weight relative to the control group (K-opioid receptor (KOR); [7]): more rapid regain | food intake relative to the control group (K-opioid receptor (KOR); [7]): increased more rapidly

ghrelin (GSSFLSPEHQRVQQRKESKKPPAKLQPR; not fully specified (residue 3); ends and bridges not checked; UniProt Q9UBU3 24-51, looked up) [the hormone ghrelin (Tocris)]
enrichment of AgRP in pS6 immunoprecipitates relative to controls (hypothalamus [3]): 27 fold | enrichment of NPY in pS6 immunoprecipitates relative to controls (hypothalamus [3]): 21 fold | enrichment of the ghrelin receptor in pS6 immunoprecipitates relative to controls (hypothalamus [3]): 7.1 fold | pS6 levels in the compact part of the DMH (pS6; ghrelin IP injection, 1 h): did not increase | pS6 staining in the Arc (pS6; ghrelin IP injection, 1 h): induced strong pS6 | co-localization of pS6 and c-fos in brain regions (pS6 and c-fos): extensive co-localization of c-fos and pS6

rabbit anti-pS6 240/244 polyclonal antibody (Cell Signaling #2215)
fold more RNA associated with immunoprecipitate, wild-type MEFs against S6S5A cells [4]: 100 fold | fold more RNA isolated in immunoprecipitate, wild-type MEFs against S6^S5A controls [5]: 100 fold
